# Reference: patent publication US10174067B2, “Type of cytidine derivative and application thereof” (priority 2014, dated 2019)
# Marks after values point to notes of the source that are not given here.
# Experiments:
# [1] = In short: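 Test compounds formulated in ethanol:Cremophor EL:saline (5:5:90), vehicle alone as control, in HCT-116 subcutaneous xenografts in female Balb/c nudes (6/group, start 60–150 mm^3). Weight measured three times weekly, tumour weight at end; unpaired t-test on Mean±SEM data.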
# [2] = tested on: HCT-116 colon cancer xenografts; assay: Tumor growth inhibition of HCT-116 colon cancer xenografts in tumor-bearing nude mice (tumor volume, TGI %, RTV, T/C %); assay type: in vivo, Balb/c Nude mice; conditions: for T/C % (relative tumor proliferation rate): dosage 400 mg/kg (G10-G16 study);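 on T/C % (relative tumor proliferation rate): control C is the vehicle-treated model control group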
# In short: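 Tumors in HCT-116-inoculated nude mice were sized three times weekly by diameter, with volume V=3/4π(D/2)^3. Significance set at P<0.05.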
# [3] = Day 0, G10-G16 groups, single IP 400 mg/kg
# [4] = Day 0, G10-G16 groups, single IP 400 mg/kg, Mean±SEM
# [5] = Day 1, G10-G16 groups, single IP 400 mg/kg, Mean±SEM
# [6] = Day 2, G10-G16 groups, single IP 400 mg/kg, Mean±SEM
# [7] = Day 4, G10-G16 groups, single IP 400 mg/kg, Mean±SEM
# [8] = Day 7, G10-G16 groups, single IP 400 mg/kg, Mean±SEM
# [9] = Day 9, G10-G16 groups, single IP 400 mg/kg, Mean±SEM
# [10] = Day 11, G10-G16 groups, single IP 400 mg/kg, Mean±SEM
# [11] = Day 14, G10-G16 groups, single IP 400 mg/kg, Mean±SEM
# [12] = Day 16, G10-G16 groups, single IP 400 mg/kg, Mean±SEM
# [13] = Day 18, G10-G16 groups, single IP 400 mg/kg, Mean±SEM
# [14] = Day 21, G10-G16 groups, single IP 400 mg/kg, Mean±SEM
# [15] = Day 23, G10-G16 groups, single IP 400 mg/kg, Mean±SEM
# [16] = Day 25, G10-G16 groups, single IP 400 mg/kg, Mean±SEM
# [17] = Day 28, G10-G16 groups, single IP 400 mg/kg, Mean±SEM
# [18] = Day 30, G10-G16 groups, single IP 400 mg/kg, Mean±SEM
smiles,measurement,setting,value
CCCCOC(=O)Nc1nc(=O)n([C@@H]2O[C@H](COC(=O)Cn3cnc([N+](=O)[O-])c3)C(O)C2(F)F)cc1I (stereo partly shown) [Compound G12],"Weight change rate, Day 0",[1]; [3],0.00%
same,"Weight of mice, Day 0",[1]; [4],20.05 ± 0.26 g
same,"Weight change rate, Day 1",[1]; [5],−2.59 ± 1.08%
same,"Weight of mice, Day 1",[1]; [5],19.53 ± 0.36 g
same,"Weight change rate, Day 2",[1]; [6],−3.15 ± 0.93%
same,"Weight of mice, Day 2",[1]; [6],19.42 ± 0.29 g
same,"Weight change rate, Day 4",[1]; [7],−1.54 ± 1.11%
same,"Weight of mice, Day 4",[1]; [7],19.73 ± 0.25 g
same,"Weight change rate, Day 7",[1]; [8],−0.93 ± 1.50 %
same,"Weight of mice, Day 7",[1]; [8],19.85 ± 0.21 g
same,"Weight change rate, Day 9",[1]; [9],2.11 ± 2.28%
same,"Weight of mice, Day 9",[1]; [9],20.45 ± 0.32 g
same,"Weight change rate, Day 11",[1]; [10],3.34 ± 2.25%
same,"Weight of mice, Day 11",[1]; [10],20.70 ± 0.36 g
same,"Weight change rate, Day 14",[1]; [11],1.76 ± 2.11 %
same,"Weight of mice, Day 14",[1]; [11],20.38 ± 0.32 g
same,"Weight change rate, Day 16",[1]; [12],2.56 ± 1.91 %
same,"Weight of mice, Day 16",[1]; [12],20.55 ± 0.34 g
same,"Weight change rate, Day 18",[1]; [13],5.03 ± 2.23 %
same,"Weight of mice, Day 18",[1]; [13],21.05 ± 0.46 g
same,"Weight change rate, Day 21",[1]; [14],3.68 ± 2.13 %
same,"Weight of mice, Day 21",[1]; [14],20.78 ± 0.48 g
same,Day 22 Mortality,"[1]; Day 22, single IP dose (mg/kg)",0%
same,"Weight change rate, Day 23",[1]; [15],4.37 ± 1.91 %
same,"Weight of mice, Day 23",[1]; [15],20.92 ± 0.38 g
same,"Weight change rate, Day 25",[1]; [16],6.69 ± 1.87 %
same,"Weight of mice, Day 25",[1]; [16],21.38 ± 0.39 g
same,"Weight change rate, Day 28",[1]; [17],4.43 ± 0.69%
same,"Weight of mice, Day 28",[1]; [17],20.68 ± 0.31 g
same,"Weight change rate, Day 30",[1]; [18],5.67 ± 0.86%
same,"Weight of mice, Day 30",[1]; [18],20.93 ± 0.43 g
same,clinical symptoms,"[1]; after single IP dose, compared with model control group",no significant differences in clinical symptoms
same,Day 0 (RTV),[2]; [3],1.00
same,"Tumor volume, Day 0",[2]; [4],70.49 ± 13.19* mm^3
same,T/C % (relative tumor proliferation rate),[2]; Day 0,0.00%
same,Day 1 (TGI %),"[2]; Day 1, G10-G16 groups, single IP 400 mg/kg",62.26%
same,Day 1 (RTV),[2]; [5],1.12 ± 0.22
same,"Tumor volume, Day 1",[2]; [5],68.13 ± 11.02** mm^3
same,T/C % (relative tumor proliferation rate),[2]; Day 1,66.60%
same,Day 2 (TGI %),"[2]; Day 2, G10-G16 groups, single IP 400 mg/kg",63.70%
same,Day 2 (RTV),[2]; [6],1.28 ± 0.22
same,"Tumor volume, Day 2",[2]; [6],80.54 ± 15.99** mm^3
same,T/C % (relative tumor proliferation rate),[2]; Day 2,61.57%
same,Day 4 (TGI %),"[2]; Day 4, G10-G16 groups, single IP 400 mg/kg",58.48%
same,Day 4 (RTV),[2]; [7],1.80 ± 0.23
same,"Tumor volume, Day 4",[2]; [7],123.31 ± 27.06** mm^3
same,T/C % (relative tumor proliferation rate),[2]; Day 4,65.24%
same,Day 7 (TGI %),"[2]; Day 7, G10-G16 groups, single IP 400 mg/kg",51.81%
same,Day 7 (RTV),[2]; [8],3.07 ± 0.38
same,"Tumor volume, Day 7",[2]; [8],208.41 ± 44.11** mm^3
same,T/C % (relative tumor proliferation rate),[2]; Day 7,75.07%
same,Day 9 (TGI %),"[2]; Day 9, G10-G16 groups, single IP 400 mg/kg",49.03%
same,Day 9 (RTV),[2]; [9],4.37 ± 0.50
same,"Tumor volume, Day 9",[2]; [9],300.88 ± 62.43* mm^3
same,T/C % (relative tumor proliferation rate),[2]; Day 9,77.79%
same,Day 11 (TGI %),"[2]; Day 11, G10-G16 groups, single IP 400 mg/kg",51.33%
same,Day 11 (RTV),[2]; [10],7.11 ± 1.07
same,"Tumor volume, Day 11",[2]; [10],475.09 ± 105.26** mm^3
same,T/C % (relative tumor proliferation rate),[2]; Day 11,77.05%
same,Day 14 (TGI %),"[2]; Day 14, G10-G16 groups, single IP 400 mg/kg",39.61%
same,Day 14 (RTV),[2]; [11],13.07 ± 2.18
same,"Tumor volume, Day 14",[2]; [11],869.70 ± 190.68* mm^3
same,T/C % (relative tumor proliferation rate),[2]; Day 14,94.48%
same,Day 16 (TGI %),"[2]; Day 16, G10-G16 groups, single IP 400 mg/kg",30.00%
same,Day 16 (RTV),[2]; [12],19.45 ± 2.82
same,"Tumor volume, Day 16",[2]; [12],1267.85 ± 225.13 mm^3
same,T/C % (relative tumor proliferation rate),[2]; Day 16,112.70%
same,Day 18 (TGI %),"[2]; Day 18, G10-G16 groups, single IP 400 mg/kg",19.24%
same,Day 18 (RTV),[2]; [13],26.31 ± 5.44
same,"Tumor volume, Day 18",[2]; [13],1613.91 ± 242.24 mm^3
same,T/C % (relative tumor proliferation rate),[2]; Day 18,137.82%
same,Day 21 (TGI %),"[2]; Day 21, G10-G16 groups, single IP 400 mg/kg",21.29%
same,Day 21 (RTV),[2]; [14],32.69 ± 8.02
same,"Tumor volume, Day 21",[2]; [14],1924.26 ± 257.46 mm^3
same,T/C % (relative tumor proliferation rate),[2]; Day 21,139.66%
same,Day 23 (TGI %),"[2]; Day 23, G10-G16 groups, single IP 400 mg/kg",17.69%
same,Day 23 (RTV),[2]; [15],33.10 ± 7.89
same,"Tumor volume, Day 23",[2]; [15],1943.90 ± 242.19 mm^3
same,T/C % (relative tumor proliferation rate),[2]; Day 23,167.43%
same,Day 25 (TGI %),"[2]; Day 25, G10-G16 groups, single IP 400 mg/kg",17.26%
same,Day 25 (RTV),[2]; [16],36.50 ± 8.74
same,"Tumor volume, Day 25",[2]; [16],2136.52 ± 258.58 mm^3
same,T/C % (relative tumor proliferation rate),[2]; Day 25,168.82%
same,Day 28 (TGI %),"[2]; Day 28, G10-G16 groups, single IP 400 mg/kg",24.12%
same,Day 28 (RTV),[2]; [17],43.13 ± 14.83
same,"Tumor volume, Day 28",[2]; [17],2040.64 ± 281.98 mm^3
same,T/C % (relative tumor proliferation rate),[2]; Day 28,204.13%
same,Day 30 (TGI %),"[2]; Day 30, G10-G16 groups, single IP 400 mg/kg",16.67%
same,Day 30 (RTV),[2]; [18],49.17 ± 15.89
same,"Tumor volume, Day 30",[2]; [18],2338.31 ± 292.39 mm^3
same,T/C % (relative tumor proliferation rate),[2]; Day 30,198.17%
